Tested on: HCT116 human colorectal carcinoma xenograft
Experiment: HCT116 xenograft tumor growth delay (TGD) study
Format: in vivo, mice
Experimental: Female athymic nude mice (Crl:NU(Ncr)-Foxn1^nu, Charles River) were eight weeks old with a body weight (BW) range of 14.6 to 25.7 grams on Day 1 of the study. The animals were fed ad libitum water (reverse osmosis, 1 ppm Cl), and NIH 31 Modified and Irradiated Lab Diet® consisting of 18.0% crude protein, 5.0% crude fat, and 5.0% crude fiber. The mice were housed on irradiated Enrich-O'Cobs™ Laboratory Animal Bedding in static microisolators on a 12-hour light cycle at 20-22° C. (68-72° F.) and 40-60% humidity.
HCT116 human colon carcinoma cells were cultured in RPMI-1640 medium supplemented with 10% fetal bovine serum, 2 mM glutamine, 100 units/mL penicillin G sodium, 100 μg/mL streptomycin sulfate, and 25 μg/mL gentamicin. The tumor cells were grown in tissue culture flasks in a humidified incubator at 37° C., in an atmosphere of 5% CO2 and 95% air.
The HCT116 cells used for implantation were harvested during exponential growth and resuspended in 50% Matrigel (BD Biosciences): 50% phosphate buffered saline at a concentration of 2.5×10^7 cells/mL. On the day of tumor implant, each test mouse was injected subcutaneously in the right flank with 5×10^6 cells (0.2 mL cell suspension), and tumor growth was monitored as the average size approached the target range of 100 to 150 mm^3. Tumors were measured in two dimensions using calipers, and volume was calculated using the formula: Tumor Volume (mm^3)=(w^2×l)/2 where w=width and l=length, in mm, of the tumor. Tumor weight may be estimated with the assumption that 1 mg is equivalent to 1 mm^3 of tumor volume.
Ten days after tumor implantation, designated as Day 1 of the study, the animals were sorted into nine groups (Groups 1-9) each consisting of fifteen mice and one group (Group 10) consisting of ten mice.
BVD-523 doses were prepared by suspending the required amount of BVD-523 powder in 1% carboxymethyl cellulose (CMC) in deionized water (“Vehicle”). A 10 mg/mL BVD-523 stock was prepared, and was used to dose the 100 mg/kg BVD-523 group. Aliquots of the stock were diluted with the vehicle to a concentration of 5.0 mg/mL, which provided a 50 mg/kg BVD-523 dosage in a dosing volume of 10 mL/kg. The BVD-523 doses were stored at 4° C. for up to one week. The 1% CMC vehicle was used to dose the control group.
Paclitaxel (Lot CP2N10007) was purchased as a dry powder from Phyton Biotech, LLC (Fort Worth, Tex.). A paclitaxel stock solution (30 mg/mL) in 50% ethanol: 50% Cremophor EL was prepared and stored at room temperature protected from light during the dosing period. On each day of dosing, an aliquot of the paclitaxel stock was diluted with 5% dextrose in water (D5W) to yield a 3.0 mg/mL paclitaxel dosing solution in a vehicle consisting of 5% ethanol: 5% Cremophor EL: 90% D5W.
On Day 1 of the study, mice were sorted into nine groups (Group 1-9) each consisting of fifteen mice and one group (Group 10) consisting of ten mice, and dosing was initiated according to the treatment plan summarized in Table 4 below. All doses were given by oral gavage (p.o.) except paclitaxel, which was given i.v. For each agent, the dosing volume of 10 mL/kg (0.2 mL per 20 grams of BW) was scaled to the BW of the individual animal. […] For bid dosing, dosing was initiated in the afternoon of Day 1, so that one dose was given on the first day (“first day 1 dose”).
Group 1 received 1% CMC vehicle p.o. bid to end, and served as the control group for calculation of % TGD. Group 10 received paclitaxel i.v. at 30 mg/kg once every other day (qod) for five doses (qod×5), and served as the positive control for the model.
Groups 4 and 5 received 50 and 100 mg/kg BVD-523, respectively, p.o. bid to end.

[1] = Group 1 (vehicle) vs Group 4 (BVD-523 50 mg/kg po bid to end)
[2] = Group 4: BVD-523 50 mg/kg po bid to end
[3] = Group 5: BVD-523 100 mg/kg po bid to end

## CC(C)Nc1cc(-c2c[nH]c(C(=O)N[C@H](CO)c3cccc(Cl)c3)c2)c(Cl)cn1 [BVD-523]
BVD-523 50 mg/kg p.o. bid to end
  Overall activity in the HCT116 xenograft model: active
[1]
  Are survival curves diff.?: Yes
  Hazard Ratio: 4.813
  Logrank test Chi square: 21.86
  Median survival Ratio (Column A/Column B): 0.7517
[2]
  % TGD: 33%
  MTV (n): number of animals on D 45 (45-day survivors): (5)
  MTV D 45 (median tumor volume): 1666 mm^3
  Median TTE: 43.5 days
  Regressions CR: 0
  Regressions PR: 0
  Regressions TFS: 0
  T − C: 10.8 days
[3]
  % TGD: 38%
  MTV (n): number of animals on D 45 (45-day survivors): (11)
  MTV D 45 (median tumor volume): 405 mm^3
  Median TTE: 45.0 days
  Regressions CR: 0
  Regressions PR: 0
  Regressions TFS: 0
  T − C: 12.3 days

Reference: patent US11007183B2, “Cancer treatments using combinations of PI3K/Akt pathway and ERK inhibitors” (BIOMED VALLEY DISCOVERIES, INC., priority 2013, dated 2021)
